What was measured:
DU145 cells = assay: MTT cytotoxicity assay in DU145 cells; type: cell-based, Human; conditions: 72 hours incubation, read-out: IC50 in prostate cancer cells, DU145
Procedure: (§1) Cisplatin and ADIBO-COOH were used as controls. […] Cell Lines and Cell Culture. […] Cytotoxicity Analysis of Platin-CLK by MTT Assay. […] The media was changed and increasing concentrations of each compound was added. […] Final working solutions were prepared in culture media (RPMI) by keeping total DMSO percentage <1%. These were then incubated for 72 hours. […] The IC50 values were reported at ±99% confidence intervals.

PC3 cells = assay: MTT cytotoxicity assay in PC3 cells; type: cell-based, Human; conditions: 72 hours incubation, read-out: IC50 in prostate cancer cells, PC3
Procedure: as §1

In the case of `N.N.[Cl][Pt][Cl]` [Cisplatin, Cis-diamminedichloroplatinum(II)], the IC50 (DU145 cells) is reported as 6 ± 0.9 µM and the IC50 (PC3 cells) is reported as 12 ± 2 µM.

Work on `O=C(O)CCC(=O)NCCC(=O)N1Cc2ccccc2C#Cc2ccccc21` [ADIBO-COOH] yielded an IC50 (DU145 cells) of 284 ± 72 µM and an IC50 (PC3 cells) greater than 200 µM.

Reference: patent US20170096443A1, “PLATINUM(IV) COMPOUNDS AND METHODS OF MAKING AND USING SAME” (UNIVERSITY OF GEORGIA RESEARCH FOUNDATION, INC., priority 2014, published 2017)
